One test deals with A2780. The experiment in a line: Cytotoxicity/growth inhibition assay (MTT), A2780. It is filed as cell-based. Conditions: for pIC50: read-out: A2780 IC50; for IC50: read-out: IC50 (nM) A2780. As for the experimental part:
(§1) The following assays (1–5) were carried out as described in our paper (Woods, et al, British Journal of Cancer, 71, 705–711 (1995)). In addition to the cell lines described in this paper, other established human cell lines (K562, HUVEC, H460, BE, H529, and HT29) were used in the cytotoxicity/growth inhibition assay. • (1) Inhibition of tubulin assembly. The figure quoted is the concentration required to reduce assembly of tubulin by 50%. Tubulin assembly is monitored by light scatter/absorption at 350 nm.
(§2) (2) Competition for the colchicine binding site on tubulin. The figure quoted represents the % of ^3H-colchicine bound following co-incubation of test compound and ^3H-cochicine with isolated tubulin. Where ester pro-drugs were used the experiments were carried out in the presence and absence of porcine liver esterase. • (3) Cytotoxicity/growth inhibition assay. This was carried out by the MTT assay. • (4) Permeability (shape-change) assay in endothelial cells. This was carried out using a method based on that of Watts et al. (Anticancer Res., 17, 71–75, (1997)). This involved the diffusion of a fluorescently labelled dextran through a barrier of endothelial cells (HUVEC) grown to confluence on a porous membrane. The effect of agents to alter the shape of these cells results in an increase in the permeability of the cells to the dye. The figure represents the increase in permeability over control cultures when drug is added (30 minutes, 1 mM.). • (5) Experiments to study the anti-vascular effects of these agents were carried out as described previously by our group. (Zhao et al, European Journal of Nuclear Medicine, 26, 231–238 (1999)). The anti-vascular effects of the agents were monitored by either positron emission tomography (PET) or by histologogical examination following treatment of mice bearing T50:80 murine breast tumours, or H460 human lung tumours. • (6) Anti-tumour efficacy of agents was determined in xenografts of H460 human lung cancer. Animals (n=5) were trated either with 5 daily injections and tumour size measured with time following treatment. • (7) The pharmacokinetic profile of agents was determined in mice following injection with drug. Blood was taken at various times following treatment and analysed by HPLC with UV detection. The HPLC conditions were isocratic using a 5 micron C18 BDS column (150×4.6) ad eluting with 75% MeOH in water with a detection wavelength of 290 nm. […] (AND(P)H:quinone oxidoreductace, EC 1.6.99.2). DT-diaphorase is an enzyme over-expressed in a number of human tumours. […] This two-electron reducing enzyme can be used to selectively activate prodrugs within cancers which over-express the enzyme.

Test [1] relates to K562 human myelogeneous leukaemia cell line. In words: Cytotoxicity/growth inhibition assay (MTT), K562. Format: cell-based. Conditions: Homo sapiens, K562; MTT; read-out: K562 IC50. The gist of the method: (§3)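 Growth inhibition of P388 murine and K562 human leukaemia cells measured by MTT assay.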
The test system of the next test is T1, tubulin.
T1 construct: other: concentration required to reduce assembly of tubulin by 50%
The experiment in a line: Inhibition of tubulin assembly. The settings on record: concentration required to reduce assembly of tubulin by 50%. It is filed as biochemical. As for the experimental part:
as §1

For test [2], the system named is colchicine binding site on tubulin. The experiment in a line: Competition for the colchicine binding site on tubulin.
Test [3] has the same test system. Described as above. Conditions: % of 3H-colchicine bound; for Colchicine displacement protein:drug 1:10 (with esterase): with porcine liver esterase. As for the experimental part:
as §2, with “This was carried out using a method based on that of Watts et al. (Anticancer Res., 17, 71–75, (1997)).” left out, “(Zhao et al, European Journal of Nuclear Medicine, 26, 231–238 (1999)).” left out, “detection.” for “detection. The HPLC conditions were isocratic using a 5 micron C18 BDS column (150×4.6) ad eluting with 75% MeOH in water with a detection wavelength of 290 nm.”

A further test relates to A2780/ADR. The experiment in a line: Cytotoxicity/growth inhibition assay (MTT), A2780/ADR. It is filed as cell-based. As for the experimental part: as §1, §2
The next test has as its system HUVEC. In words: Growth inhibition studies using HUVEC. It is filed as cell-based, human. The protocol: as §1, §2
Test [4] deals with P388 murine leukaemia cell line. In words: Cytotoxicity/growth inhibition assay (MTT), P388. Format: cell-based. An outline of the steps: as §3
Test [5] deals with H460 human lung cell line. The experiment in a line: Cytotoxicity/growth inhibition assay (MTT), H460. It is filed as cell-based. The protocol:
as §1, §2

The text below walks through data of patent US7220784B2, “Substituted stilbenes and their reactions” (priority 2000, dated 2007).

pIC50: −log10 of the molar value. “And” between values parts separate entries of the source, which are not always exact repeats. Equal entries are not always repeated. Where two headings read alike, the source gives them in different places. Bounds are passed on as bounds.

A word on the pIC50: it is the negative decadic logarithm of the IC50, by convention in mol/L. Usually IC50 stands for the midpoint of a concentration-inhibition curve.

Take `COc1cc(C=Cc2cc(F)c(OC)c(F)c2)cc(OC)c1OC` [Compound 00-82]: the pIC50 in the test with A2780 (Homo sapiens, A2780) was 7.22; in test [1] it was 7.30. This molecule showed an IC50 in the test on tubulin of 7.2 µM. The “Colchicine % Inhibition” value in test [2] worked out at 39.5%.
On to `COc1ccc(C=Cc2cc(OC)c(OC)c(OC)c2)c(F)c1F` [Compound 00-105], for which the pIC50 in test [1] is 7.70. Besides, the IC50 with tubulin is greater than 100 µM. For the same molecule, in test [2], the “Colchicine % Inhibition” value is recorded as 3.6%.
Turning to `CCC(C)C(NC(=O)OC(C)(C)C)C(=O)Oc1cc(C=Cc2cc(OC)c(OC)c(OC)c2)ccc1OC` (stereo not drawn) [Compound 34], the IC50 in the test with A2780 (Homo sapiens, A2780) is greater than 60 nM; in the test on tubulin it was 6.2 µM; in the test on A2780/ADR (A2780 ADR) it was greater than 60 nM. The “Colchicine displacement protein:drug 1:10 (with esterase)” value in test [3] is given as 2%. The “Colchicine displacement protein:drug 1:10 (without esterase)” value in [3] came out at 65%.
With `COc1ccc(/C=C\c2cc(OC)c(OC)c(OC)c2)cc1OC(=O)CNC(=O)OC(C)(C)C` [Compound 35], the IC50 in the test with A2780 (Homo sapiens, A2780) came to 4.3 nM; in the test on tubulin, 7.5 µM; with A2780/ADR (A2780 ADR), 5 nM. Further, the “Colchicine displacement protein:drug 1:10 (with esterase)” value in test [3] turned out to be 4%. For the same molecule, the “Colchicine displacement protein:drug 1:10 (without esterase)” value in test [3] is 65%.
For `COc1ccc(C=Cc2cc(OC)c(OC)c(OC)c2)cc1OC(=O)C(CCSC)NC(=O)OC(C)(C)C` (stereo not drawn) [Compound 37], the IC50 in the test with A2780 (Homo sapiens, A2780) is 6.7 nM; in the test with tubulin, 6 µM; in the test on A2780/ADR (A2780 ADR) it was 9.1 nM. Also, the “Colchicine displacement protein:drug 1:10 (with esterase)” value in test [3] worked out at 2%. For the same molecule, the “Colchicine displacement protein:drug 1:10 (without esterase)” value in [3] came to 88%.
`COc1ccc(C=Cc2cc(OC)c(OC)c(OC)c2)cc1OC(=O)C(CC(C)C)NC(=O)OC(C)(C)C` (stereo not drawn) [Compound 38]: the IC50 in the test with A2780 (Homo sapiens, A2780) came out at 14 nM; with tubulin it was 7.8 µM; with A2780/ADR (A2780 ADR), 27 nM. Also, the “Colchicine displacement protein:drug 1:10 (without esterase)” value in [3] is 72%.
For the molecule `COc1ccc(C=Cc2cc(OC)c(OC)c(OC)c2)cc1OC(=O)C(C)NC(=O)OC(C)(C)C` (stereo not drawn) [Compound 39], the IC50 in the test with A2780 (Homo sapiens, A2780) is 2.7 nM; with tubulin, 8 µM; in the test on A2780/ADR (A2780 ADR), 4.6 nM. Further, in [3], the “Colchicine displacement protein:drug 1:10 (with esterase)” value was 2%. The “Colchicine displacement protein:drug 1:10 (without esterase)” value in test [3] is listed as 77%.
On to `COc1ccc(/C=C\c2cc(OC)c(OC)c(OC)c2)cc1OC(=O)C(Cc1c[nH]cn1)NC(=O)OC(C)(C)C` (stereo not drawn) [Compound 40], for which the IC50 with A2780 worked out at 2.2 nM; with tubulin, 7 µM; in the test with A2780/ADR, 4.3 nM. Also, the “Colchicine displacement protein:drug 1:10 (with esterase)” value in test [3] turned out to be 4%. In test [3], the “Colchicine displacement protein:drug 1:10 (without esterase)” value is given as 2%.
For the molecule `COc1ccc(C=Cc2cc(OC)c(OC)c(OC)c2)cc1OC(=O)C1CCCN1C(=O)OC(C)(C)C` (stereo not drawn) [Compound 41], the IC50 was 29 nM in the test on A2780 (Homo sapiens, A2780); 9 µM in the test with tubulin; 39 nM with A2780/ADR (A2780 ADR). Moreover, the “Colchicine displacement protein:drug 1:10 (with esterase)” value in test [3] was 2%. For the same molecule, in [3], the “Colchicine displacement protein:drug 1:10 (without esterase)” value was 78%.
As to `COc1ccc(/C=C\c2cc(OC)c(OC)c(OC)c2)cc1OC(=O)[C@@H](CCSC)NC(=O)OC(C)(C)C` [Compound 42], the IC50 in the test on A2780 (Homo sapiens, A2780) stood at 2.9 nM; in the test on tubulin it was 3.5 µM; in the test with A2780/ADR (A2780 ADR), 2.9 nM. For the same molecule, in test [3], the “Colchicine displacement protein:drug 1:10 (with esterase)” value is recorded as 2%.
As for `COc1ccc(/C=C\c2cc(OC)c(OC)c(OC)c2)cc1OC(=O)[C@@H](Cc1c[nH]c2ccccc12)NC(=O)OC(C)(C)C` [Compound 43], the IC50 in the test with A2780 (Homo sapiens, A2780) was 3.3 nM; with tubulin, 3 µM; in the test with A2780/ADR (A2780 ADR) it was 3.8 nM. The “Colchicine displacement protein:drug 1:10 (with esterase)” value in test [3] is listed as 2%.
For `COc1ccc(C=Cc2cc(OC)c(OC)c(OC)c2)cc1OC(=O)c1ccncc1` [Compound 96-167], the pIC50 with A2780 is 9.43; in the test on HUVEC (Homo sapiens, HUVEC), 7.40; in test [4] (MTT), 9.10. The same molecule returned an IC50 in the test on tubulin of 9 µM. Besides, the “Colchicine % Inhibition” value in [2] amounted to 3.8%.
Consider `COc1ccc(C=Cc2cc(OC)c(OC)c(OC)c2)cc1OC(=O)c1ccncc1` [Compound 97-07], for which the pIC50 in the test with A2780 is 8.83; in test [5] (Homo sapiens, NCI-H460), 5.56; in test [4] (MTT), 8.64. This molecule returned an IC50 in the test on tubulin of 10 µM. Besides, in test [2], the “Colchicine % Inhibition” value is 6.6% and 12.3%.
With `COc1ccc(/C=C\c2cc(OC)c(OC)c(OC)c2)cc1Oc1c(F)c(F)nc(F)c1F` [Compound 97-13H], the pIC50 with A2780 was 7.75; with HUVEC it was 7.35; in test [5], 7.46 to 7.49; in test [4] (MTT) it was 7.49. The IC50 in the test with tubulin was greater than 100 µM. Moreover, in test [2], the “Colchicine % Inhibition” value turned out to be 84.2%.
For the molecule `COc1ccc(C=Cc2cc(OC)c(OC)c(OC)c2)cc1F` [Compound 97-64L], the pIC50 is 6.95 in the test on A2780 and 6.77 in test [4] (MTT). Also, the IC50 with tubulin was greater than 100 µM. Besides, the “Colchicine % Inhibition” value in test [2] was 43%.
For the molecule `COc1cc(C=Cc2ccc(C)c(O)c2)cc(OC)c1OC` [Compound 98-21], the pIC50 in the test on A2780 (Homo sapiens, A2780) was 9.18; in the test on HUVEC (Homo sapiens, HUVEC) it was 8.02; in test [4] (Mus musculus, P388, MTT) it was 9.03. The same molecule registered an IC50 in the test on tubulin of less than 1.25 µM. In addition, the “Colchicine % Inhibition” value in test [2] worked out at 1.4%.
The corresponding values for `COc1ccc(C=Cc2cc(OC)c(OC)c(OC)c2)cc1OCc1ccccc1[N+](=O)[O-]` [Compound 98-29] are 6.42, 6.37, 6.35, greater than 100 µM and 53%.
In the case of `COc1cc(/C=C\c2ccc(C)c(F)c2)cc(OC)c1OC` [Compound 98-35H], the pIC50 in the test on A2780 is 8.84; with HUVEC, 7.80; in [4] (MTT) it was 8.48. Also, inhibition in the test with tubulin was half-maximal at 6.25 µM (IC50). Further, the “Colchicine % Inhibition” value in test [2] was determined as 5%.
